According to patent publication US20140155384A1, “COMPOUNDS AND METHODS OF TREATING DIABETES” (Medivation Technologies, Inc., priority 2011, published 2014):

How the values were obtained:
[1] = target: T1, human recombinant adrenergic α2B receptor (Homo sapiens, UniProt P18089); experiment: Radioligand binding, adrenergic α2B receptor ([3H]Rauwolscine); conditions: CHO-K1 cells, read-out: Percentage inhibition of ligand binding, Adrenergic α2B; for inhibition at 0.1 µM: 0.1 μM compound
T1 construct: expressed in transfected cells; host or cells: CHO-K1
T1 sequence (P18089 1-450): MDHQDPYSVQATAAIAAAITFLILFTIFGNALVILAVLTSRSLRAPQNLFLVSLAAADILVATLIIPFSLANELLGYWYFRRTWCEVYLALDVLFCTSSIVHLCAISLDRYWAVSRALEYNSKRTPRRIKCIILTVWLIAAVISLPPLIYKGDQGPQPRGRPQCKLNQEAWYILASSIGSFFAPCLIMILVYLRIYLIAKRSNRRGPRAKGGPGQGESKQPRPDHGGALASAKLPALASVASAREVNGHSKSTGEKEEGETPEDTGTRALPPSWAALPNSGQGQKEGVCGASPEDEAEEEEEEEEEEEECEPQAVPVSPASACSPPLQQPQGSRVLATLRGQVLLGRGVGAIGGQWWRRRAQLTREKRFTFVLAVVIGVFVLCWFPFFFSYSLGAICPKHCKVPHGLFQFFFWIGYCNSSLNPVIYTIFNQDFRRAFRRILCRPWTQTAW
Description: To evaluate in radioligand binding assays the activity of compounds, human recombinant adrenergic α2B receptor expressed in Chinese hamster ovary (CHO) K1 cells (Uhlen, S. et al, Eur. J. Pharmacol. 343(1):93, 1998) in a modified Tris-HCl buffer (50 mM Tris-HCl, pH 7.4, 12.5 mM MgCl2, 1 mM EDTA, 0.2% BSA) was used. Compounds were incubated with 2.5 nM [^3H]Rauwolscine for 60 min at 25° C. Non-specific binding was estimated in the presence of 10 μM Prazosin. Receptor proteins were filtered and washed, the filters were then counted to determine [^3H]Rauwolscine specifically bound. Compounds were screened at 1 μM or lower, using 1% DMSO as vehicle. Compounds were tested in this biochemical assay and percent inhibition of specific binding was determined. Biochemical assay results are presented as the percent inhibition of specific binding in Table 2.

[2] = target: T2, human recombinant adrenergic α2A receptor (Homo sapiens, UniProt P08913); experiment: Radioligand binding, adrenergic α2A receptor ([3H]MK-912); conditions: 0.1 μM compound, Sf9 cells, 1 nM [3H]MK-912; for inhibition at 0.1 µM: read-out: Percentage inhibition of ligand binding, Adrenergic α2A
T2 construct: expressed in transfected cells; host or cells: insect Sf9 cells
T2 sequence (P08913 1-465): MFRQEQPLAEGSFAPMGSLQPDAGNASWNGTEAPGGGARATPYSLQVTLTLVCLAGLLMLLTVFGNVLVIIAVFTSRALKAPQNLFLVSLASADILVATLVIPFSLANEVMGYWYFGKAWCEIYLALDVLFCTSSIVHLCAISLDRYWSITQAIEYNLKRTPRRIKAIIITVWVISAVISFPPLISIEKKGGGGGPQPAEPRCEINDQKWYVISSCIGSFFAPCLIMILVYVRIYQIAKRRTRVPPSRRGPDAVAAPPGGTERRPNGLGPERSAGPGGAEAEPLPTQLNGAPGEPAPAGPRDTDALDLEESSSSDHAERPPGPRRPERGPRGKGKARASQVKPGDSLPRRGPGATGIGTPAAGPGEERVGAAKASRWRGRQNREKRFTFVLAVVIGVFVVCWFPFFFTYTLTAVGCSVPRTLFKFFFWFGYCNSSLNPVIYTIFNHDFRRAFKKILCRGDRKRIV
Description: To evaluate in radioligand binding assays the activity of compounds, human recombinant adrenergic α2A receptor expressed in insect Sf9 cells (Uhlen, S. et al, J. Pharmacol. Exp. Ther. 271:1558, 1994) in a modified Tris-HCl buffer (50 mM Tris-HCl, pH 7.4, 12.5 mM MgCl2, 2 mM EDTA) was used. Compounds were incubated with 1 nM [^3H]MK-912 for 60 min at 25° C. MK912 is (2S-trans)-1,3,4,5′,6,6′,7,12b-octahydro-1′,3′-dimethyl-spiro[2H-benzofuro[2,3-a]quinolizine-2,4′(1′H)-pyrimidin]-2′(3′H)-one hydrochloride Non-specific binding was estimated in the presence of 10 μM WB-4101 (2-(2,6-Dimethoxyphenoxyethyl)aminoethyl-1,4-benzodioxane hydrochloride). Receptor proteins were filtered and washed, the filters were then counted to determine [^3H]MK-912 specifically bound. Compounds were screened at 1 μM or lower, using 1% DMSO as vehicle. Compounds were tested in this biochemical assay and percent inhibition of specific binding was determined. Biochemical assay results are presented as the percent inhibition of specific binding in Table 2.

[3] = target: T3, human recombinant adrenergic α1D receptor (Homo sapiens, UniProt P25100); experiment: Radioligand binding, adrenergic α1D receptor ([3H]Prazosin); conditions: 0.1 μM compound; HEK-293 cells; 0.6 nM [3H]Prazosin; read-out: Percentage inhibition of ligand binding, Adrenergic α1D
T3 construct: expressed in transfected cells; host or cells: HEK-293
T3 sequence (P25100 1-572): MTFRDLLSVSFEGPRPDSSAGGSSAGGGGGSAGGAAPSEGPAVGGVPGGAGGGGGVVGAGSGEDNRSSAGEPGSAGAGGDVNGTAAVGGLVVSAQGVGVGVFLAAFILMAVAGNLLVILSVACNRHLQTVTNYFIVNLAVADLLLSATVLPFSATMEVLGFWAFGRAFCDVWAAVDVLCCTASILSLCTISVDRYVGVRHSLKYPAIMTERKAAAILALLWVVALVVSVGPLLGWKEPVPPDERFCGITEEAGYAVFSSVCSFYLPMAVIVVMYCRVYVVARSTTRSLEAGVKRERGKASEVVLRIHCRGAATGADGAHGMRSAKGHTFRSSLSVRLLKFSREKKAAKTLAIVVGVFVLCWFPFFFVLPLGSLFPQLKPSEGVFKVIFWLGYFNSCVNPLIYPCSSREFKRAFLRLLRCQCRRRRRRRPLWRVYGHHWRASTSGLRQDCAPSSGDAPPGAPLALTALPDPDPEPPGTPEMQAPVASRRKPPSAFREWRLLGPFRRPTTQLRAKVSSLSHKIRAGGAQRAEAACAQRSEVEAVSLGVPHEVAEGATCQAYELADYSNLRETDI
Description: Compounds were incubated with 0.6 nM [3H]Prazosin for 60 min at 25° C. Non-specific binding was estimated in the presence of 10 μM phentolamine. Receptor proteins were filtered and washed, the filters were then counted to determine [3H]Prazosin specifically bound. Compounds were screened at 1 μM or lower, using 1% DMSO as vehicle. Biochemical assay results are presented as the percent inhibition of specific binding in Table 2.

[4] = target: T4, rat adrenergic α1B receptor (Rattus norvegicus, UniProt P15823); experiment: Radioligand binding, adrenergic α1B receptor ([3H]Prazosin); conditions: 0.1 μM compound, Wistar rat liver, read-out: Percentage inhibition of ligand binding, Adrenergic α1B
T4 construct: rat adrenergic α1B receptor obtained from Wistar Rat liver; from tissue; host or cells: Wistar rat liver
T4 sequence (P15823 1-515): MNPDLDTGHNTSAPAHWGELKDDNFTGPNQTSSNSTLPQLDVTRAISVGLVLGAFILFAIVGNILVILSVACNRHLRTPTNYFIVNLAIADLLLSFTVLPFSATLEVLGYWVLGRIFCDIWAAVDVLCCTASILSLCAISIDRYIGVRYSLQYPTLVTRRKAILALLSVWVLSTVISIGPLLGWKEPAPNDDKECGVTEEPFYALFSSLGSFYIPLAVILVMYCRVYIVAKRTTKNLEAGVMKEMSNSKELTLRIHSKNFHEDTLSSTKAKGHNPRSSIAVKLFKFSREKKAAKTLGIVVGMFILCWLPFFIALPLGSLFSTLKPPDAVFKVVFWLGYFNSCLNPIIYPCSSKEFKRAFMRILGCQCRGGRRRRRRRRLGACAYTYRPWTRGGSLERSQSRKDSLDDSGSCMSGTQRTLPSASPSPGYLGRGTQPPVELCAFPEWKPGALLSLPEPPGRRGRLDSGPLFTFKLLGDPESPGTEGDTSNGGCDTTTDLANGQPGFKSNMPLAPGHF
Description: To evaluate in radioligand binding assays the activity of compounds, rat adrenergic α1B receptor obtained from Wistar Rat liver (Garcia-S' ainz, J. et al, Biochem. Biophys. Res. Commun. 186:760, 1992; Michel, A. et al, Br. J. Pharmacol. 98:883, 1989) in a modified Tris-HCl buffer (50 mM Tris-HCl buffer, pH 7.4, 0.5 mM EDTA) was used. Compounds were incubated with 0.25 nM [^3H]Prazosin for 60 min at […]. Non-specific binding was estimated in the presence of 10 μM phentolamine. Receptor proteins were filtered and washed, the filters were then counted to determine [^3H]Prazosin specifically bound. Compounds were screened at 1 μM or lower, using 1% DMSO as vehicle. Compounds were tested in this biochemical assay and percent inhibition of specific binding was determined. Biochemical assay results are presented as the percent inhibition of specific binding in Table 2.

inhibition at 0.1 µM [1] [%]	inhibition at 0.1 µM [2] [%]	inhibition at 0.1 µM [3] [%]	inhibition at 0.1 µM [4] [%]	inhibition at 0.03 µM ([1]; 0.03 μM compound) [%]	Percentage inhibition of ligand binding, Adrenergic α2A [2] [%]	Structure (SMILES)
42	20	70	46			CNC(=O)c1cccc(-c2cscc2-n2c3c(c4cc(C)ccc42)CN(C)CC3)c1 [Compound No. 154]
56						Cc1ccc2c(c1)c1c(n2-c2ccccc2-c2cnccc2C)CCN(C)C1 [Compound No. 159, 2,8-dimethyl-5-(2-(4-methylpyridin-3-yl)phenyl)-2,3,4,5-tetrahydro-1H-pyrido[4,3-b]indole]
74						Cc1ccc2c(c1)c1c(n2-c2ccccc2-c2ccc(S(C)(=O)=O)cc2)CCN(C)C1 [Compound No. 160, 2,8-dimethyl-5-(4′-(methylsulfonyl)biphenyl-2-yl)-2,3,4,5-tetrahydro-1H-pyrido[4,3-b]indole]
26						Cc1ccc2c(c1)c1c(n2-c2ncccc2-c2ccncc2)CCN(C)C1 [Compound No. 161, 5-(3,4′-bipyridin-2-yl)-2,8-dimethyl-2,3,4,5-tetrahydro-1H-pyrido[4,3-b]indole]
3						Cc1ccc2c(c1)c1c(n2-c2cnc(C)c3ccccc23)CCN(C)C1 [Compound No. 164, 2,8-dimethyl-5-(1-methylisoquinolin-4-yl)-2,3,4,5-tetrahydro-1H-pyrido[4,3-b]indole]
69						Cc1ccc2c(c1)c1c(n2-c2ccccc2-c2ccc(S(N)(=O)=O)cc2)CCN(C)C1 [Compound No. 163, 2′-(2,8-dimethyl-3,4-dihydro-1H-pyrido[4,3-b]indol-5(2H)-yl)biphenyl-4-sulfonamide]

Continued, compound first:

Structure (SMILES)	inhibition at 0.1 µM [1] [%]	inhibition at 0.1 µM [2] [%]	inhibition at 0.1 µM [3] [%]	inhibition at 0.1 µM [4] [%]	inhibition at 0.03 µM ([1]; 0.03 μM compound) [%]	Percentage inhibition of ligand binding, Adrenergic α2A [2] [%]
Cc1ccc2c(c1)c1c(n2-c2cccc(-c3cccn3C)c2)CCN(C)C1 [Compound No. 69, 2,8-dimethyl-5-(3-(1-methyl-1H-pyrrol-2-yl)phenyl)-2,3,4,5-tetrahydro-1H-pyrido[4,3-b]indole]	3	39	9	11		
Cc1ccc2c(c1)c1c(n2-c2cccc(-c3cncc4ccccc34)c2)CCN(C)C1 [Compound No. 67, 5-(3-(isoquinolin-4-yl)phenyl)-2,8-dimethyl-2,3,4,5-tetrahydro-1H-pyrido[4,3-b]indole]	13	39	-1	2		
CC(=O)Nc1ccc(-c2ccccc2-n2c3c(c4cc(C)ccc42)CN(C)CC3)cn1 [Compound No. 83, N-(5-(2-(2,8-dimethyl-3,4-dihydro-1H-pyrido[4,3-b]indol-5(2H)-yl)phenyl)pyridin-2-yl)acetamide]	71	20	64	18		
Cc1ccc2c(c1)c1c(n2-c2ccc3ccncc3c2)CCN(C)C1 [Compound No. 74, 5-(isoquinolin-7-yl)-2,8-dimethyl-2,3,4,5-tetrahydro-1H-pyrido[4,3-b]indole]	70	38	18	41		
Cc1ccc2c(c1)c1c(n2-c2ccc(-c3cnc(N(C)C)nc3)cn2)CCN(C)C1 [Compound No. 138, 5-(6-(2,8-dimethyl-3,4-dihydro-1H-pyrido[4,3-b]indol-5(2H)-yl)pyridin-3-yl)-N,N-dimethylpyrimidin-2-amine]	82	40	73	73		
Cc1ccc2c(c1)c1c(n2-c2ccccc2-c2cn[nH]c2)CCN(C)C1 [Compound No. 104, 5-(2-(1H-pyrazol-4-yl)phenyl)-2,8-dimethyl-2,3,4,5-tetrahydro-1H-pyrido[4,3-b]indole]	87	10	22		61	19
Cc1ccc2c(c1)c1c(n2-c2cnc3c(c2)CCCC3)CCN(C)C1 [Compound No. 153]		1				
